Data published in PubChem BioAssay (NCI).
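1) Cells in 96-well plates. 2) Compound, 48 h, 5 concentrations. 3) Linear interpolation between surrounding doses. 4) Unreached endpoint = highest concentration. GI50 marks 50% less growth. TGI is the concentration that stops growth completely.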

Key:
Experiment in all cases: NCI anticancer screen, dose series, 48 h; in the data active = GI50 below about 0.43 µM; inactive = the rest
HS 578T breast = test system: HS 578T breast
SW-620 colon = test system: SW-620 colon
SN12C renal = test system: SN12C renal
HCT-15 colon = test system: HCT-15 colon
T-47D breast = test system: T-47D breast
MALME-3M melanoma = test system: MALME-3M melanoma
HCC-2998 colon = test system: HCC-2998 colon
SR leukemia = test system: SR leukemia
SK-MEL-28 melanoma = test system: SK-MEL-28 melanoma
CAKI-1 renal = test system: CAKI-1 renal
OVCAR-4 ovarian = test system: OVCAR-4 ovarian
NCI-H522 lung = test system: NCI-H522 lung
IGROV1 ovarian = test system: IGROV1 ovarian
MDA-MB-435 = test system: MDA-MB-435
HOP-62 NSCLC = test system: HOP-62 NSCLC
NCI-H226 lung = test system: NCI-H226 lung
PC-3 prostate = test system: PC-3 prostate
K-562 leukemia = test system: K-562 leukemia
NCI-H460 lung = test system: NCI-H460 lung
HL-60(TB) leukemia = test system: HL-60(TB) leukemia
NCI-H23 lung = test system: NCI-H23 lung
SF-295 CNS = test system: SF-295 CNS
MDA-MB-231 breast = test system: MDA-MB-231 breast
CCRF-CEM leukemia = test system: CCRF-CEM leukemia
NCI/ADR-RES ovarian = test system: NCI/ADR-RES ovarian
UO-31 renal = test system: UO-31 renal
RPMI-8226 leukemia = test system: RPMI-8226 leukemia
HCT-116 colon = test system: HCT-116 colon
ACHN renal = test system: ACHN renal
SK-OV-3 ovarian = test system: SK-OV-3 ovarian
786-0 renal = test system: 786-0 renal
BT-549 breast = test system: BT-549 breast
SF-268 CNS = test system: SF-268 CNS
TK-10 renal = test system: TK-10 renal
UACC-257 melanoma = test system: UACC-257 melanoma
COLO 205 colon = test system: COLO 205 colon
MCF7 breast = test system: MCF7 breast
OVCAR-8 ovarian = test system: OVCAR-8 ovarian
MOLT-4 leukemia = test system: MOLT-4 leukemia
HT29 colon = test system: HT29 colon
A498 renal = test system: A498 renal
SNB-75 CNS = test system: SNB-75 CNS
DU-145 prostate = test system: DU-145 prostate
UACC-62 melanoma = test system: UACC-62 melanoma
U251 CNS = test system: U251 CNS
SK-MEL-5 melanoma = test system: SK-MEL-5 melanoma
KM12 colon = test system: KM12 colon
A549 NSCLC = test system: A549 NSCLC
SF-539 CNS = test system: SF-539 CNS
M14 melanoma = test system: M14 melanoma
OVCAR-3 ovarian = test system: OVCAR-3 ovarian
SNB-19 CNS = test system: SNB-19 CNS
OVCAR-5 ovarian = test system: OVCAR-5 ovarian
RXF 393 renal = test system: RXF 393 renal
HOP-92 NSCLC = test system: HOP-92 NSCLC
EKVX NSCLC = test system: EKVX NSCLC
LOX IMVI melanoma = test system: LOX IMVI melanoma
SK-MEL-2 melanoma = test system: SK-MEL-2 melanoma

O=C1CCCC(=O)C1C(=O)c1ccc(C(F)(F)F)cc1[N+](=O)[O-]
> 100 µM: TGI (HS 578T breast) | TGI (SW-620 colon) | TGI (SN12C renal) | TGI (HCT-15 colon) | TGI (T-47D breast) | TGI (MALME-3M melanoma) | TGI (HCC-2998 colon) | TGI (SR leukemia) | TGI (SK-MEL-28 melanoma) | TGI (CAKI-1 renal) | TGI (OVCAR-4 ovarian) | TGI (NCI-H522 lung) | TGI (IGROV1 ovarian) | TGI (MDA-MB-435) | TGI (HOP-62 NSCLC) | TGI (NCI-H226 lung) | TGI (PC-3 prostate) | TGI (K-562 leukemia) | TGI (NCI-H460 lung) | TGI (HL-60(TB) leukemia) | TGI (NCI-H23 lung) | TGI (SF-295 CNS) | TGI (MDA-MB-231 breast) | TGI (CCRF-CEM leukemia) | TGI (NCI/ADR-RES ovarian) | TGI (UO-31 renal) | TGI (RPMI-8226 leukemia) | TGI (HCT-116 colon) | TGI (ACHN renal) | TGI (SK-OV-3 ovarian) | TGI (786-0 renal) | TGI (BT-549 breast) | TGI (SF-268 CNS) | TGI (TK-10 renal) | TGI (UACC-257 melanoma) | TGI (COLO 205 colon) | TGI (MCF7 breast) | TGI (OVCAR-8 ovarian) | TGI (MOLT-4 leukemia) | TGI (HT29 colon) | TGI (A498 renal) | TGI (SNB-75 CNS) | TGI (DU-145 prostate) | TGI (UACC-62 melanoma) | TGI (U251 CNS) | TGI (SK-MEL-5 melanoma) | TGI (KM12 colon) | TGI (A549 NSCLC) | TGI (SF-539 CNS) | TGI (M14 melanoma) | TGI (OVCAR-3 ovarian) | TGI (SNB-19 CNS) | TGI (OVCAR-5 ovarian)
inactive: GI50 (HS 578T breast) > 100 µM | GI50 (SW-620 colon) > 100 µM | GI50 (SN12C renal) > 100 µM | GI50 (HCT-15 colon) > 100 µM | GI50 (T-47D breast) > 100 µM | GI50 (MALME-3M melanoma) > 100 µM | GI50 (HCC-2998 colon) > 100 µM | GI50 (SR leukemia) > 100 µM | GI50 (SK-MEL-28 melanoma) > 100 µM | GI50 (CAKI-1 renal) > 100 µM | GI50 (OVCAR-4 ovarian) > 100 µM | GI50 (NCI-H522 lung) > 100 µM | GI50 (IGROV1 ovarian) > 100 µM | GI50 (MDA-MB-435) > 100 µM | GI50 (HOP-62 NSCLC) > 100 µM | GI50 (NCI-H226 lung) > 100 µM | GI50 (PC-3 prostate) > 100 µM | GI50 (K-562 leukemia) > 100 µM | GI50 (NCI-H460 lung) > 100 µM | GI50 (HL-60(TB) leukemia) > 100 µM | GI50 (NCI-H23 lung) > 100 µM | GI50 (SF-295 CNS) > 100 µM | GI50 (MDA-MB-231 breast) > 100 µM | GI50 (CCRF-CEM leukemia) > 100 µM | GI50 (NCI/ADR-RES ovarian) > 100 µM | GI50 (UO-31 renal) > 100 µM | GI50 (RPMI-8226 leukemia) > 100 µM | GI50 (HCT-116 colon) > 100 µM | GI50 (ACHN renal) > 100 µM | GI50 (SK-OV-3 ovarian) > 100 µM | GI50 (786-0 renal) > 100 µM | GI50 (BT-549 breast) > 100 µM | GI50 (SF-268 CNS) > 100 µM | GI50 (TK-10 renal) > 100 µM | GI50 (UACC-257 melanoma) > 100 µM | GI50 (COLO 205 colon) > 100 µM | GI50 (MCF7 breast) > 100 µM | GI50 (OVCAR-8 ovarian) > 100 µM | GI50 (MOLT-4 leukemia) > 100 µM | GI50 (HT29 colon) > 100 µM | GI50 (A498 renal) > 100 µM | GI50 (SNB-75 CNS) > 100 µM | GI50 (DU-145 prostate) > 100 µM | GI50 (UACC-62 melanoma) > 100 µM | GI50 (U251 CNS) > 100 µM | GI50 (SK-MEL-5 melanoma) > 100 µM | GI50 (KM12 colon) > 100 µM | GI50 (A549 NSCLC) > 100 µM | GI50 (SF-539 CNS) > 100 µM | GI50 (M14 melanoma) > 100 µM | GI50 (OVCAR-3 ovarian) > 100 µM | GI50 (SNB-19 CNS) > 100 µM | GI50 (OVCAR-5 ovarian) > 100 µM

C(=C\c1nc2ccccc2s1)/c1ccc(N2CCOCC2)s1
> 100 µM: TGI (HS 578T breast) | TGI (SW-620 colon) | TGI (SN12C renal) | TGI (HCT-15 colon) | TGI (RXF 393 renal) | TGI (T-47D breast) | TGI (MALME-3M melanoma) | TGI (SR leukemia) | TGI (SK-MEL-28 melanoma) | TGI (CAKI-1 renal) | TGI (OVCAR-4 ovarian) | TGI (NCI-H522 lung) | TGI (IGROV1 ovarian) | TGI (MDA-MB-435) | TGI (HOP-62 NSCLC) | TGI (NCI-H226 lung) | TGI (PC-3 prostate) | TGI (K-562 leukemia) | TGI (NCI-H460 lung) | TGI (HL-60(TB) leukemia) | TGI (NCI-H23 lung) | TGI (MDA-MB-231 breast) | TGI (CCRF-CEM leukemia) | TGI (NCI/ADR-RES ovarian) | TGI (UO-31 renal) | TGI (RPMI-8226 leukemia) | TGI (HCT-116 colon) | TGI (ACHN renal) | TGI (SK-OV-3 ovarian) | TGI (EKVX NSCLC) | TGI (786-0 renal) | TGI (BT-549 breast) | TGI (SF-268 CNS) | TGI (TK-10 renal) | TGI (UACC-257 melanoma) | TGI (COLO 205 colon) | TGI (LOX IMVI melanoma) | TGI (MCF7 breast) | TGI (OVCAR-8 ovarian) | TGI (MOLT-4 leukemia) | TGI (HT29 colon) | TGI (A498 renal) | TGI (SNB-75 CNS) | TGI (DU-145 prostate) | TGI (UACC-62 melanoma) | TGI (U251 CNS) | TGI (SK-MEL-5 melanoma) | TGI (SK-MEL-2 melanoma) | TGI (KM12 colon) | TGI (A549 NSCLC) | TGI (SF-539 CNS) | TGI (M14 melanoma) | TGI (OVCAR-3 ovarian) | TGI (SNB-19 CNS) | TGI (OVCAR-5 ovarian)
inactive: GI50 (HS 578T breast) 37 µM | GI50 (SW-620 colon) > 100 µM | GI50 (SN12C renal) 43.3 µM | GI50 (HCT-15 colon) 17.1 µM | GI50 (RXF 393 renal) 31.3 µM | GI50 (T-47D breast) 71 µM | GI50 (MALME-3M melanoma) 72 µM | GI50 (SR leukemia) 58.9 µM | GI50 (HOP-92 NSCLC) 35.7 µM | GI50 (SK-MEL-28 melanoma) > 100 µM | GI50 (CAKI-1 renal) > 100 µM | GI50 (OVCAR-4 ovarian) 33.7 µM | GI50 (NCI-H522 lung) 49.2 µM | GI50 (IGROV1 ovarian) 58.3 µM | GI50 (MDA-MB-435) > 100 µM | GI50 (HOP-62 NSCLC) 45.5 µM | GI50 (NCI-H226 lung) 43.3 µM | GI50 (PC-3 prostate) 33.7 µM | GI50 (K-562 leukemia) > 100 µM | GI50 (NCI-H460 lung) 51.3 µM | GI50 (HL-60(TB) leukemia) > 100 µM | GI50 (NCI-H23 lung) 80.9 µM | GI50 (SF-295 CNS) 24.2 µM | GI50 (MDA-MB-231 breast) > 100 µM | GI50 (CCRF-CEM leukemia) 55.7 µM | GI50 (NCI/ADR-RES ovarian) 37.1 µM | GI50 (UO-31 renal) 80.5 µM | GI50 (RPMI-8226 leukemia) 25.6 µM | GI50 (HCT-116 colon) 59.9 µM | GI50 (ACHN renal) 33.4 µM | GI50 (SK-OV-3 ovarian) 90.7 µM | GI50 (EKVX NSCLC) 30.1 µM | GI50 (786-0 renal) 33.7 µM | GI50 (BT-549 breast) 34.6 µM | GI50 (SF-268 CNS) 44 µM | GI50 (TK-10 renal) 48.4 µM | GI50 (UACC-257 melanoma) 51.3 µM | GI50 (COLO 205 colon) > 100 µM | GI50 (LOX IMVI melanoma) 38.4 µM | GI50 (MCF7 breast) 75 µM | GI50 (OVCAR-8 ovarian) 35.5 µM | GI50 (MOLT-4 leukemia) > 100 µM | GI50 (HT29 colon) 20.8 µM | GI50 (A498 renal) > 100 µM | GI50 (SNB-75 CNS) 31.6 µM | GI50 (DU-145 prostate) 48.8 µM | GI50 (UACC-62 melanoma) 7.94 µM | GI50 (U251 CNS) 44.8 µM | GI50 (SK-MEL-5 melanoma) 21.8 µM | GI50 (SK-MEL-2 melanoma) 63.8 µM | GI50 (KM12 colon) 93.8 µM | GI50 (A549 NSCLC) 31.8 µM | GI50 (SF-539 CNS) 53.1 µM | GI50 (M14 melanoma) > 100 µM | GI50 (OVCAR-3 ovarian) 61.7 µM | GI50 (SNB-19 CNS) 51.4 µM | GI50 (OVCAR-5 ovarian) 66.9 µM
95.4 µM: TGI (SF-295 CNS)
95.3 µM: TGI (HOP-92 NSCLC)
